This is an account of results in patent publication US9855265B2, “Methods for treating cancer with TrkA receptor tyrosine kinase antagonists” (VM Oncology LLC, priority 2014, dated 2018).

One test concerns the target T1, ALK5/TGFB-R1 (Homo sapiens, UniProt P36897).
T1 construct: other kinases of recombinant human cytoplasmic domain
The test can be described thus: radiometric kinase assay, other kinases: ALK5/TGFB-R1. It is filed as biochemical. Particulars: duplicate. How it is done:
(§1) Compound inhibition in a radiometric based mixed micelle assay: In a final reaction volume of 25 μL, TrkA (h) ([…]) is incubated with the kinase reaction buffer (20 mM HEPES (pH 7.5), 10 mM MgCl2, 1 mM EGTA, 0.02% Brij 35, 0.02 mg/ml BSA, 0.1 mM Na3VO4, 2 mM DTT, 1% DMSO), 0.2 mg/ml substrate PolyEY(4:1) and […], and [^33P-ATP](specific activity approx. 500 cpm/pmol, concentration as required). The reaction is initiated by the addition of the MgATP mix. After incubation for at least 40 minutes at room temperature, the reaction is stopped by the addition of 5 μL of a 3% phosphoric acid solution. 10 μL of the reaction is then spotted onto a P30 filtermat and washed three times for 5 minutes in 75 mM phosphoric acid and once in methanol prior to drying and scintillation counting. TrkA: Recombinant Human Cytoplasmic Domain (amino acids 441-796), Histidine-tagged, expressed in insect cells. Activated in vitro via auto-phosphorylation. Mw=42.8 kDa. Substrates for kinases: poly(EY) for TRKA; poly(EY)(4:1) with 2 mM MnCl2, average Mw=16 kDa Standard conditions (unless otherwise specified): 30 nM TRKA, 0.2 mg/ml poly(EY)+2 mM MnCl2, and 10 μM ([γ-^33P]) ATP. Using the similar assay condition with other kinases of recombinant human cytoplasmic domain, the activities of other kinases could be also measured.

A further test addresses RAF1 (Homo sapiens, UniProt P04049). The test can be described thus: radiometric kinase assay, other kinases: RAF1. It is filed as biochemical. Particulars: duplicate. How it is done:
as §1

For a further test, the target named is MEK1 (Homo sapiens, UniProt Q02750). The test can be described thus: radiometric kinase assay, other kinases: MEK1. Format: biochemical. To be noted: duplicate. How it is done: as §1
MEK1, sequence (Q02750 whole entry): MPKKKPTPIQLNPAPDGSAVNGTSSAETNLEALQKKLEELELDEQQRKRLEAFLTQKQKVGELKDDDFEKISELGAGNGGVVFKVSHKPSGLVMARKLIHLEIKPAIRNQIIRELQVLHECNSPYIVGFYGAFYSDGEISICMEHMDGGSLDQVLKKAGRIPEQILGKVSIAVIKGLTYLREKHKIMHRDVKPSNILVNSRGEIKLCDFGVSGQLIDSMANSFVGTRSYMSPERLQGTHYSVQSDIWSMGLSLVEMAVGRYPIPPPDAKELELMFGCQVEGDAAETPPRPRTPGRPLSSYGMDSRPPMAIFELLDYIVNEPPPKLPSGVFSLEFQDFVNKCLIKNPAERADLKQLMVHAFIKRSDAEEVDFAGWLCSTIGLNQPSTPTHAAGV
A further test addresses MLK1/MAP3K9 (Homo sapiens, UniProt P80192). As to the kind of experiment: radiometric kinase assay, other kinases: MLK1/MAP3K9. It is filed as biochemical. To be noted: duplicate. The protocol:
as §1

The next test deals with TrkC (Homo sapiens, UniProt Q16288). The test can be described thus: live whole cell based functional assay, NT3 stimulated TrkC activation. Details: expressed in transfected cells. To be noted: triplicate.
TrkC, sequence (Q16288 32-839): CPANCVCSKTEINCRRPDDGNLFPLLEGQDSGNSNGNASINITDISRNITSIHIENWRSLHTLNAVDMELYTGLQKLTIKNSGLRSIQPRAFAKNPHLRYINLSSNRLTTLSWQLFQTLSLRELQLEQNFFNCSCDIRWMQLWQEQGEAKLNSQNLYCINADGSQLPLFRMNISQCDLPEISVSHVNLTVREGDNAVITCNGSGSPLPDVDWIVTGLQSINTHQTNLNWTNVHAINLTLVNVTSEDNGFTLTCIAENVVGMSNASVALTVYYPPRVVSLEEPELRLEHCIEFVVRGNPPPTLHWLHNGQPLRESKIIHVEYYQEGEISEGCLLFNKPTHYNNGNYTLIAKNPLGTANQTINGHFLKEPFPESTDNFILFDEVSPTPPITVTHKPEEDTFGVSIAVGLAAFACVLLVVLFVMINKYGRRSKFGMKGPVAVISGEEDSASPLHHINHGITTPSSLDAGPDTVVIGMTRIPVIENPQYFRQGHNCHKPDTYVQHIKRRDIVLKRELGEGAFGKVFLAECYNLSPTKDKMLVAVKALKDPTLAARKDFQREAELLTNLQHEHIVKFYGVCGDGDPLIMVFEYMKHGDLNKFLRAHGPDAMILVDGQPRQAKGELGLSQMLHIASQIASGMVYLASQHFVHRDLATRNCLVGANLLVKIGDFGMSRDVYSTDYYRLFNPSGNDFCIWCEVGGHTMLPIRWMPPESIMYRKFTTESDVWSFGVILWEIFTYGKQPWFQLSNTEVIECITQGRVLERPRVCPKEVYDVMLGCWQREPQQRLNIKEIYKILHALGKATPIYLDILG
In a further test the target is P38a/MAPK14 (Homo sapiens, UniProt Q16539). As to the kind of experiment: radiometric kinase assay, other kinases: P38a/MAPK14. Format: biochemical. Particulars: duplicate. How it is done:
as §1

The next test has as its target T2, PDGFRa (Homo sapiens, UniProt P16234).
T2 construct: other kinases of recombinant human cytoplasmic domain
The test can be described thus: radiometric kinase assay, other kinases: PDGFRa. It is filed as biochemical. To be noted: duplicate. The protocol: as §1

The target of a further test is PKCgamma (Homo sapiens, UniProt P05129). As to the kind of experiment: radiometric kinase assay, other kinases: PKCgamma. It is filed as biochemical. Particulars: duplicate. The protocol:
as §1

The test system of test [1] is Panc-1 human pancreatic cancer cells. As to the kind of experiment: Cell Viability and Proliferation Assay, Panc-1. Format: cell-based. Particulars: after 24 incubation. How it is done: (§2) Cell Viability and Proliferation Assays. To assess the chemosensitivity of tumor cells, cell viability is measured by CellTiter-Glo® Luminescent Cell Viability Assay (Promega; Wis., USA) per the manufacturer's instruction. Briefly, 5×10^3 to 7×10^5 cells/ml are cultured in sterile 96-well plates in the presence of increasing concentrations of the drugs (test article, 0 to 100 μM), or vehicle in RPMI medium. The plates are then incubated for 24 to 96 h, and then 100 μl of CellTiter-Glo reagent is added to lyse the cells. After a 10-min incubation at room temperature, the luminescence is recorded in a luminometer with an integration time of 1 s per well. The luminescence signals for the drug-treated cells are normalized by the luminescence signal obtained from vehicle-treated cells. As an alternative method to quantitate cell viability, the trypan blue exclusion dye method was used. Vehicle- or drug-treated cells were assayed by adding trypan blue solution (0.4% in phosphate-buffered saline [PBS]) to the culture medium. After 3 min, the number of dead cells that retained the dye is compared to the total number of cells to calculate cell viability. GraphPad Prism 5 software is used to calculate IC50 and plot effect-dose curve of drugs. Multiplate reader: EnVision 2104 (PerkinElmer). % of control variability=100*[(X(drug_treated)−L(baseline))/(H(vehicle_control)−L(baseline))]. […]

Test [2] concerns AsPC-1 human pancreatic cancer cells. As to the kind of experiment: Cell Viability and Proliferation Assay, AsPC-1. Format: cell-based. To be noted: ASPC1, after 24 incubation. How it is done:
as §2

For a further test, the target named is T3, RET (Homo sapiens, UniProt P07949).
T3 construct: other kinases of recombinant human cytoplasmic domain
T3 sequence (P07949 658-1114 limits assumed): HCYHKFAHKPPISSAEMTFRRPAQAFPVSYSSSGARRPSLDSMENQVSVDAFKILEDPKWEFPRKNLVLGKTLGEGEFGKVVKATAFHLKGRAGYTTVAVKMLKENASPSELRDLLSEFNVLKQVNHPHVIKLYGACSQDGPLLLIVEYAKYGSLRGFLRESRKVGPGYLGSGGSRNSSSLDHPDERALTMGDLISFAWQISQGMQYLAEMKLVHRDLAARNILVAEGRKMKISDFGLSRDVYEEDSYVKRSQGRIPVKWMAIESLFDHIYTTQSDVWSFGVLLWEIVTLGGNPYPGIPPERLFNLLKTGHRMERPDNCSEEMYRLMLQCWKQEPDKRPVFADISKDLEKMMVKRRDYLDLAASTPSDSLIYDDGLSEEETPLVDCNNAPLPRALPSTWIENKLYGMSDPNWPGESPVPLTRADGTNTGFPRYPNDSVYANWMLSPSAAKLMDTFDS
As to the kind of experiment: radiometric kinase assay, other kinases: RET. It is filed as biochemical. Particulars: duplicate. The protocol:
as §1

For a further test, the target named is PKCalpha (Homo sapiens, UniProt P17252). The test can be described thus: radiometric kinase assay, other kinases: PKCalpha. It is filed as biochemical. To be noted: duplicate. The protocol:
as §1

The next test deals with PKCiota (Homo sapiens, UniProt P41743). The test can be described thus: radiometric kinase assay, other kinases: PKCiota. Format: biochemical. To be noted: duplicate. The protocol:
as §1

The test system of test [3] is carrageenan-induced pain in rats. The test can be described thus: Carrageenan Pain Model. It is filed as in vivo, Sprague-Dawley rats. Particulars: carrageenan rat model, 150 mg/kg oral dose, compared to indomethacin. How it is done: Carrageenan Pain Model The carrageenan model is a fast, reliable model used to assess the ability of analgesics to block inflammatory pain. The analgesic effects of test article combinations on pain generation are assayed using the carrageenan-induced pain model in rats. Adult male Sprague-Dawley rats are administered study drugs orally (vehicle, compounds of present disclosure) once daily for 2 days (day −2 and day −1) and 30 minutes prior to the carrageenan injection on day 0 (time=0). For the carrageenan injection, animals are lightly anesthetized and 0.1 ml of 2% carrageenan is injected into the plantar surface of the right hind paw. The positive control indomethacin (30 mg/kg, p.o.) is administered orally immediately before the carrageenan injection. Paw volumes (right and left) are measured using a Plethysmometer before drug administration on day −2 and serve as a baseline measurement. The paw volumes are measured again two hours post carrageenan injection. The degree of mechanical allodynia is measured by a blinded observer using Von Frey filaments applied to the plantar surface of the hind paws in an increasing numerical order. Each filament increases the force applied on the paw. The filaments are applied until animal paw withdrawal is achieved. […] Results are expressed as mean change from baseline across five timepoints post carrageenan injection.

The target in another test is FGR (Homo sapiens, UniProt P09769). The test can be described thus: radiometric kinase assay, other kinases: FGR. Format: biochemical. Particulars: duplicate. The protocol: as §1
Another test concerns the target CDK2/cyclinE (Homo sapiens, UniProt P24941). As to the kind of experiment: radiometric kinase assay, other kinases: CDK2/cyclinE. Format: biochemical. Particulars: duplicate. How it is done: as §1
In another test the target is TrkB (Homo sapiens, UniProt Q16620). The test can be described thus: live whole cell based functional assay, BDNF stimulated TrkB activation. Also on record: expressed in transfected cells. To be noted: triplicate.
TrkB, sequence (Q16620 32-822): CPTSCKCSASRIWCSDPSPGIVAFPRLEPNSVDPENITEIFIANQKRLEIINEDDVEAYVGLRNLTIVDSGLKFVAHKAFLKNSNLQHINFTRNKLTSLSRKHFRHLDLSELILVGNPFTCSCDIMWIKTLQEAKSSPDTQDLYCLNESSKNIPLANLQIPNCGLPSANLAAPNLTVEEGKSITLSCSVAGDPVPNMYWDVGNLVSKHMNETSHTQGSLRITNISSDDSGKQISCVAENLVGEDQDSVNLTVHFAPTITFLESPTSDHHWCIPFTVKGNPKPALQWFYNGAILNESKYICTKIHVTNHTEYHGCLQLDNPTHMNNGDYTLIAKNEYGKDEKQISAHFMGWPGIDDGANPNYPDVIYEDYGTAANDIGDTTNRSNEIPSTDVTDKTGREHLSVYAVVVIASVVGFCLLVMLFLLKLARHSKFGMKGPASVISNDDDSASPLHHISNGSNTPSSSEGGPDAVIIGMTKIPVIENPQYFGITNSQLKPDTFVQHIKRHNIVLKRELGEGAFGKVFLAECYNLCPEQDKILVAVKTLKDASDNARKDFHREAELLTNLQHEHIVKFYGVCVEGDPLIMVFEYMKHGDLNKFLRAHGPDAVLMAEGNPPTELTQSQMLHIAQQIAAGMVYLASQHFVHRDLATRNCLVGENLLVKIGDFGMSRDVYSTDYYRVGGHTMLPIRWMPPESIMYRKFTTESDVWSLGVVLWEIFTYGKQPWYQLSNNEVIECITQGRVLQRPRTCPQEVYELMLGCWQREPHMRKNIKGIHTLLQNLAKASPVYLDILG

RAF1, sequence (P04049 whole entry): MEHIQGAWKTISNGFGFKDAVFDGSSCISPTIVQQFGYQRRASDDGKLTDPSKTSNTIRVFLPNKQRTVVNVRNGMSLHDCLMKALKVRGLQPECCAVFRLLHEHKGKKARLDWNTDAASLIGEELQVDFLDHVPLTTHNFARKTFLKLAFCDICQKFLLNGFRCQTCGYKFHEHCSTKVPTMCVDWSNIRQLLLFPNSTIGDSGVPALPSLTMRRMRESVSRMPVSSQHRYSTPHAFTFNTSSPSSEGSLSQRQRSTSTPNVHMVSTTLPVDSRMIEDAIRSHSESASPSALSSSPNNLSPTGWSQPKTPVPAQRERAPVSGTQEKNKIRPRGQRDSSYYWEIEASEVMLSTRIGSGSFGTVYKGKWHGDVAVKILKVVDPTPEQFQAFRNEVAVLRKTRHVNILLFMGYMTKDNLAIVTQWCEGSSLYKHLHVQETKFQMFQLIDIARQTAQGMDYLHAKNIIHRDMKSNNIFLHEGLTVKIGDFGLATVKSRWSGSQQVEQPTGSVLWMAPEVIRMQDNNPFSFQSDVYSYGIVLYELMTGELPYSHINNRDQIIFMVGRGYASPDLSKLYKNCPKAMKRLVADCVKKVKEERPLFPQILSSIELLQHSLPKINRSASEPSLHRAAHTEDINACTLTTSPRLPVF
P38a/MAPK14, sequence (Q16539 whole entry): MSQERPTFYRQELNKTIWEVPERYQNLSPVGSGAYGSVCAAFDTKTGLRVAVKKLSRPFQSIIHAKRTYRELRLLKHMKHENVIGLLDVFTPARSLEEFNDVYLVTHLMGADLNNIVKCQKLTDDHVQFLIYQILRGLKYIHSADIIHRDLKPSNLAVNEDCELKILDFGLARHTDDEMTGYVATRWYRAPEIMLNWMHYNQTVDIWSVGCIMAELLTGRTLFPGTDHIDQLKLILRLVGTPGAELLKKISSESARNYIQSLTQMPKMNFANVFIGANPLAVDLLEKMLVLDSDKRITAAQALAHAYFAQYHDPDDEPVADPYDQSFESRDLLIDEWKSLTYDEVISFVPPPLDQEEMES
T2 sequence (P16234 550-1089 limits assumed): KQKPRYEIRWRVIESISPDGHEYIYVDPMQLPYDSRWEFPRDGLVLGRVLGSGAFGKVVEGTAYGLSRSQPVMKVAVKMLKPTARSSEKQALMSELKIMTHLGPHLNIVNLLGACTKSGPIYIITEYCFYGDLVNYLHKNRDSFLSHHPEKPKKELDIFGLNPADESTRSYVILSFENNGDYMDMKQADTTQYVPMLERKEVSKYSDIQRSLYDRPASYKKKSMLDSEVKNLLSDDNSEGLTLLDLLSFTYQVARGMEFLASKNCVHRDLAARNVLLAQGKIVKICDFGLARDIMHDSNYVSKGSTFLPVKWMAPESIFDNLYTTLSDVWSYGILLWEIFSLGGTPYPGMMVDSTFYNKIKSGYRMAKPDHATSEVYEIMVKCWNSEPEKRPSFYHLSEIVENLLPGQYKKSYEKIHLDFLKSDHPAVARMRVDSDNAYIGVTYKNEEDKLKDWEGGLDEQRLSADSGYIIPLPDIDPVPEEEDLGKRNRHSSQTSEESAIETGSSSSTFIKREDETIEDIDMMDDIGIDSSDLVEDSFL
PKCiota, sequence (P41743 whole entry): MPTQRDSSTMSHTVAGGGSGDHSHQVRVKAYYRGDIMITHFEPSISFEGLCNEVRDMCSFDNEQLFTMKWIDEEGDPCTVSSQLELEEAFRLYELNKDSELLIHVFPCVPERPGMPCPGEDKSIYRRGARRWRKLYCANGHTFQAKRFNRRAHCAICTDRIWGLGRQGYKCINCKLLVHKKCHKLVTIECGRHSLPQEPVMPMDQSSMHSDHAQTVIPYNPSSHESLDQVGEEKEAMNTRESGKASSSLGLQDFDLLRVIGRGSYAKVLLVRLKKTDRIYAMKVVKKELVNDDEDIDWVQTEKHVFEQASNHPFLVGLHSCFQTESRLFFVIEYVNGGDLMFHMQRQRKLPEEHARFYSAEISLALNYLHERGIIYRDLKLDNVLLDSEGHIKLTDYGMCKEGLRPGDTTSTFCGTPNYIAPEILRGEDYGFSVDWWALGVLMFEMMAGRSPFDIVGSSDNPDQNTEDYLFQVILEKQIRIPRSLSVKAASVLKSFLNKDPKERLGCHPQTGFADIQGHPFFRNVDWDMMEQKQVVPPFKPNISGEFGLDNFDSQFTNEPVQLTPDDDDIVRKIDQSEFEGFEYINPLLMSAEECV
T1 sequence (P36897 148-503 limits assumed): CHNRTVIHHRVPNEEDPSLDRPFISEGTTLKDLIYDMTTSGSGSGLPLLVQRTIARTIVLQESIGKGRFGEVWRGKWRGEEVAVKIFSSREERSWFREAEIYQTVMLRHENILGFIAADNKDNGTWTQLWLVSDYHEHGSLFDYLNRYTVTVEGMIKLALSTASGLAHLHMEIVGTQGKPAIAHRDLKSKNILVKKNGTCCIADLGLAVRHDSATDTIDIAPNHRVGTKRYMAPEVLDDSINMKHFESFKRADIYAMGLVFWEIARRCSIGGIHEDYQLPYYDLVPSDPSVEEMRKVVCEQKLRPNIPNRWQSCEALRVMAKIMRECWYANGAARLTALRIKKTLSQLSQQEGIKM

As a reminder, the IC50 is the point on the concentration scale where inhibition reaches its midpoint. Turning to `Nc1c(N2CCN(C3CCCCC3)CC2)cc(Nc2ccc(C(=O)O)cc2)c2c1C(=O)c1ccccc1C2=O` [Compound 12, 4-{[4-amino-3-(4-cyclohexylpiperazin-1-yl)-9,10-dioxo-9,10-dihydroanthracen-1-yl]amino}benzoic acid], the half-maximal inhibitory concentration (IC50) against ALK5/TGFB-R1, against RAF1, at MEK1, on MLK1/MAP3K9, against TrkC and at P38a/MAPK14 was over 10 µM each time. The IC50 against PDGFRa is over 10 µM; at PKCgamma it was over 10 µM; in [1] it was 2 to 5 µM; in test [2] it was 2 to 5 µM; on RET it was over 10 µM; on PKCalpha, over 10 µM. Also, the 50% inhibitory concentration (IC50) on PKCiota, against FGR, on CDK2/cyclinE and against TrkB was over 10 µM each time. For the same compound, the relative analgesic effect entry in test [3] was “about 85%”.
